Values of other authors, collected in US20240066056A1, “Formulations of a Prophylactic Nasal Spray and Methods of Use and Manufacture Thereof” (priority 2020, published 2024).

Assays:
SARS-CoV-2 = conditions: within 30 seconds of contact
bacteria = conditions: after an application of povidone-iodine
[1] = cold and mild-warm water and alcohol

In the case of Povidone-iodine [PVP-I], the “virus killed (in vitro virucidal activity)” value (SARS-CoV-2) is listed as 99.99%, the “duration of bactericidal action after application” value (bacteria) is listed as “up to eight” and the solubility [1] is listed as “soluble in cold and mild-warm water and alcohol”.
